In patent US9446039B2, “Aminoheteroaryl compounds as MTH1 inhibitors” (CEMM—FORSCHUNGSZENTRUM FÜR MOLEKULARE MEDIZIN GMBH, priority 2012, dated 2016):

How the values were obtained:
Format in all cases: binding
[1] = molecular target: T1, SW480 colon carcinoma cells lysate proteins (Homo sapiens, UniProt O00154); details: PreyGene ACOT7
T1 sequence (O00154 1-380): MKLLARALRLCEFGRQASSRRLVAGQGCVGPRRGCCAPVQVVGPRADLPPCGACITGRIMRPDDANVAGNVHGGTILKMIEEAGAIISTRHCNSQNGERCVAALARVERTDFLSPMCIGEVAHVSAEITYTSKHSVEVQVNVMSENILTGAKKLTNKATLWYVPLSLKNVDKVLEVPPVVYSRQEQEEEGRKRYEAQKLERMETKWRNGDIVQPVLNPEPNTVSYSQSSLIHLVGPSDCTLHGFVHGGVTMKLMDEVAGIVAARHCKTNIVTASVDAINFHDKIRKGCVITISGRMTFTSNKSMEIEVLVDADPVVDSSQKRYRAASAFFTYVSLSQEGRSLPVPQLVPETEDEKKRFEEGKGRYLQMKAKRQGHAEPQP

[2] = molecular target: SW480 colon carcinoma cells lysate proteins (Homo sapiens, UniProt P22626); details: PreyGene HNRNPA2B1
[3] = molecular target: SW480 colon carcinoma cells lysate proteins (Homo sapiens, UniProt P38646); details: PreyGene HSPA9
[4] = molecular target: SW480 colon carcinoma cells lysate proteins (Homo sapiens, UniProt P63244); details: PreyGene GNB2L1; SW480 cells
[5] = molecular target: SW480 colon carcinoma cells lysate proteins (Homo sapiens, UniProt P68366); details: PreyGene TUBA4A; SW480 cells
[6] = molecular target: T2, SW480 colon carcinoma cells lysate proteins (Homo sapiens, UniProt P68402); details: PreyGene PAFAH1B2; SW480 cells
T2 sequence (P68402 1-229): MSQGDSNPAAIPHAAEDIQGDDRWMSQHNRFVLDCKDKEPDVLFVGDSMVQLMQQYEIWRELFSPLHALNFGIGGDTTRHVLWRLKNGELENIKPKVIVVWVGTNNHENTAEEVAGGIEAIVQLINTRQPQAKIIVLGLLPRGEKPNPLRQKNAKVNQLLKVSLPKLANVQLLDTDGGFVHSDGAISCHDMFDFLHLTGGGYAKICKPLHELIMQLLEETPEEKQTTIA

[7] = molecular target: T3, SW480 colon carcinoma cells lysate proteins (Homo sapiens, UniProt Q04837); details: PreyGene SSBP1; SW480 cells
T3 sequence (Q04837 17-148): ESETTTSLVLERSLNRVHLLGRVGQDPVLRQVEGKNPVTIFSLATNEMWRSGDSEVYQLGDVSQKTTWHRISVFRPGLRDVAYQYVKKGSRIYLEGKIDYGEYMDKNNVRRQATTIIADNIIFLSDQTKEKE

[8] = molecular target: SW480 colon carcinoma cells lysate proteins (Homo sapiens, UniProt Q13885); details: PreyGene TUBB2A; SW480 cells
[9] = molecular target: SW480 colon carcinoma cells lysate proteins (Homo sapiens, UniProt Q14315); details: PreyGene FLNC; SW480 cells
[10] = molecular target: T4, SW480 colon carcinoma cells lysate proteins (Homo sapiens, UniProt Q15785); details: PreyGene TOMM34
T4 sequence (Q15785 1-309): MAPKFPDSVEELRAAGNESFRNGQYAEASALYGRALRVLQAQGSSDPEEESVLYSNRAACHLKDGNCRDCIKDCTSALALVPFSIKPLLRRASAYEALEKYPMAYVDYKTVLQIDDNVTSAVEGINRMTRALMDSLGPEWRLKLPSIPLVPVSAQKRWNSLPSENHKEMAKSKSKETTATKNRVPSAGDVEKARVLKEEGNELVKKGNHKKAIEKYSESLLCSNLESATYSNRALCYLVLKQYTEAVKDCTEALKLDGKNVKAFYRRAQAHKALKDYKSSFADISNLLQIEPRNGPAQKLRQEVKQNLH

[11] = molecular target: SW480 colon carcinoma cells lysate proteins (Homo sapiens, UniProt Q16658); details: PreyGene FSCN1
[12] = molecular target: SW480 colon carcinoma cells lysate proteins (Homo sapiens, UniProt Q9BQE3); details: PreyGene TUBA1C; SW480 cells
SW480 colon carcinoma cells lysate proteins (Homo sapiens, UniProt Q9BQE3), sequence (Q9BQE3 whole entry): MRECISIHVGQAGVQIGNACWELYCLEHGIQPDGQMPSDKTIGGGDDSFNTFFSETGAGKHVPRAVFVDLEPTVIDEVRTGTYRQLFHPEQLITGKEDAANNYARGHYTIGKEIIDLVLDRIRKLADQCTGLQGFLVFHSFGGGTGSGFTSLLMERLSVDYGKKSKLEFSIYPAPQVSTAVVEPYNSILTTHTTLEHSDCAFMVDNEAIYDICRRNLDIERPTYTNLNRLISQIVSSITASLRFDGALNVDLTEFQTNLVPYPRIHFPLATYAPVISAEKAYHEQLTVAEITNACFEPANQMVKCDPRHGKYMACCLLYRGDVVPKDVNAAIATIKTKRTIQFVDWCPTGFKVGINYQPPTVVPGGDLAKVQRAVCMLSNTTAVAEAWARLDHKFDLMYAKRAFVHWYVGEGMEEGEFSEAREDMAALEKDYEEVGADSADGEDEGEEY

SW480 colon carcinoma cells lysate proteins (Homo sapiens, UniProt Q14315), sequence (Q14315 whole entry): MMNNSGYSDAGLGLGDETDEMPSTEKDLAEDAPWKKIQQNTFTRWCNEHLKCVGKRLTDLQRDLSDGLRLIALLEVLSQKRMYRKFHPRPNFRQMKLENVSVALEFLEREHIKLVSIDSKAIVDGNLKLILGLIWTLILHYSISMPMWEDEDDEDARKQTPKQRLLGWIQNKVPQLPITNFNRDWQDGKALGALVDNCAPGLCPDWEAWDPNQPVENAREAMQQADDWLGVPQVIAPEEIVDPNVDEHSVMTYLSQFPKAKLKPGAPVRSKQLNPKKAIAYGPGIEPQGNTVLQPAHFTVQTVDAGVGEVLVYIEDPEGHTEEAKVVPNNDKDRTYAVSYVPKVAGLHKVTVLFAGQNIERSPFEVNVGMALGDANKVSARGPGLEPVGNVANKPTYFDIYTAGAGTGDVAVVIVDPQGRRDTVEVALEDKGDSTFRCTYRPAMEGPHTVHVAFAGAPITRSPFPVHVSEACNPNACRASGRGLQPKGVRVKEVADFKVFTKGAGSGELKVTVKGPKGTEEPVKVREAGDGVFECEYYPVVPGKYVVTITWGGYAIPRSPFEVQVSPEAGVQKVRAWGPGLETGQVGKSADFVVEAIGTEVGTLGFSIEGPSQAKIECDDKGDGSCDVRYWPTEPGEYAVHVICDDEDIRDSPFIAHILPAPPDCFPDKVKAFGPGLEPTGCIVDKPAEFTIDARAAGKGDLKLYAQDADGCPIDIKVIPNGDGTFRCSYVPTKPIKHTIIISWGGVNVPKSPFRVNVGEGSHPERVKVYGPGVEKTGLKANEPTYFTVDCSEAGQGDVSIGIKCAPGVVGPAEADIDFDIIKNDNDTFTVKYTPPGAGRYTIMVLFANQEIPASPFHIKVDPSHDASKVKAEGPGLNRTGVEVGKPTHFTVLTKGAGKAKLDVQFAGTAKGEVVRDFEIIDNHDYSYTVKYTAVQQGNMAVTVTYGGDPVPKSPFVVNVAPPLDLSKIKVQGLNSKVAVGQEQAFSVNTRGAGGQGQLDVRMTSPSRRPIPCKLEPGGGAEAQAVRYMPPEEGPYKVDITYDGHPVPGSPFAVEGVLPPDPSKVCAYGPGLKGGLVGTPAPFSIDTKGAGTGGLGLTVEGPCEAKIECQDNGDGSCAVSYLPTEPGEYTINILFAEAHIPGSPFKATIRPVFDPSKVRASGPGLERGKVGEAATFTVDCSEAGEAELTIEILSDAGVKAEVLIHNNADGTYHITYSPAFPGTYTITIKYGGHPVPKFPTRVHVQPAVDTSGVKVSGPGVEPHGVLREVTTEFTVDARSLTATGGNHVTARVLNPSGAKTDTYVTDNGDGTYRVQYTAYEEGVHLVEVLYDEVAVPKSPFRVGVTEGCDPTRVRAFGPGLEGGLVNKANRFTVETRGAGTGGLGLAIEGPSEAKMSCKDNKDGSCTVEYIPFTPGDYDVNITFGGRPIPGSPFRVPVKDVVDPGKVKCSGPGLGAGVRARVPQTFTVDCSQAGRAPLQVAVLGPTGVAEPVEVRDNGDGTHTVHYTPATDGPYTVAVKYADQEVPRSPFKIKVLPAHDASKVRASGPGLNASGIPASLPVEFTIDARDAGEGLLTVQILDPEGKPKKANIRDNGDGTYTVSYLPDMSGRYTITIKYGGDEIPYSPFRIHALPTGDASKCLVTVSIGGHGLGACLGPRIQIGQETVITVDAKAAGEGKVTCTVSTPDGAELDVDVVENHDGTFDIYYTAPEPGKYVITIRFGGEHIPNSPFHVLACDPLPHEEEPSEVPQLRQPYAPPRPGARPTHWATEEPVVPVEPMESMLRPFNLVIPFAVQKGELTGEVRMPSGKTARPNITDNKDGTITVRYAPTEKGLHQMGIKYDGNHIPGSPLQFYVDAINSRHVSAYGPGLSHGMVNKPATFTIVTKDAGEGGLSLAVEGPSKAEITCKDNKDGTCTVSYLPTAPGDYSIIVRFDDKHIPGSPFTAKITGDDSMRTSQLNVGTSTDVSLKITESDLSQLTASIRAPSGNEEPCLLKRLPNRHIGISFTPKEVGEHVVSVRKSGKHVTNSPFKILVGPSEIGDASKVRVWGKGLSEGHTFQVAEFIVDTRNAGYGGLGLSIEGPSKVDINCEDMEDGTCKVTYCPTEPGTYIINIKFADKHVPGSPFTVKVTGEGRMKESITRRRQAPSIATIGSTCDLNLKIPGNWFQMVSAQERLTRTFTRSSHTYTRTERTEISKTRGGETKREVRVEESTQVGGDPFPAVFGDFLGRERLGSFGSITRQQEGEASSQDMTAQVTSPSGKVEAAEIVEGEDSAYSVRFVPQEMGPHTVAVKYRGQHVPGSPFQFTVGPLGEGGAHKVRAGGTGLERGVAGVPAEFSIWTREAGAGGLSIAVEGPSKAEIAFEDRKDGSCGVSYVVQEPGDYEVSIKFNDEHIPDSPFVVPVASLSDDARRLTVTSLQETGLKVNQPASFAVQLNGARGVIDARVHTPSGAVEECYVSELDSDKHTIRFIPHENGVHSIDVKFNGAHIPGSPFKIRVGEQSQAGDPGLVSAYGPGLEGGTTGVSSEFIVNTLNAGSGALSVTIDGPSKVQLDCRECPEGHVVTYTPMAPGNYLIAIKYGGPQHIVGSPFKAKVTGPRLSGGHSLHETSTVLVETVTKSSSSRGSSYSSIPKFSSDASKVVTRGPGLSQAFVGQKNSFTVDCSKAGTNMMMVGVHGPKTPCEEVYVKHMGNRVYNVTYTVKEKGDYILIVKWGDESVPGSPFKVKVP
SW480 colon carcinoma cells lysate proteins (Homo sapiens, UniProt P38646), sequence (P38646 47-679): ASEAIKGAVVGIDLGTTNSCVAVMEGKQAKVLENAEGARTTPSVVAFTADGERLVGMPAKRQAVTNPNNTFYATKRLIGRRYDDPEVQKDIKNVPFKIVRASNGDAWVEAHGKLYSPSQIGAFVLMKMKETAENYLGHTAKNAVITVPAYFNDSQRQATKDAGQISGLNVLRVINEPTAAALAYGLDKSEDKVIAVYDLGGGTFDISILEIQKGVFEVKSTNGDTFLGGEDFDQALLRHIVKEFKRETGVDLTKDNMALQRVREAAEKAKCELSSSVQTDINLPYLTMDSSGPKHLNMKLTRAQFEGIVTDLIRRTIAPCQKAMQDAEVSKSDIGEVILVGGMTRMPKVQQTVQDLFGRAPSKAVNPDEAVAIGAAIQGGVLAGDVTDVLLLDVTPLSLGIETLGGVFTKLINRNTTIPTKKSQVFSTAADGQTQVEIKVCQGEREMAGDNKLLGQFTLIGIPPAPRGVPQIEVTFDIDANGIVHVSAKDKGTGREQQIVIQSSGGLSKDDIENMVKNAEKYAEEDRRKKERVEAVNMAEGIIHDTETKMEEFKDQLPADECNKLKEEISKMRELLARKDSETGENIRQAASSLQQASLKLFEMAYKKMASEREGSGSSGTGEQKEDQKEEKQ
SW480 colon carcinoma cells lysate proteins (Homo sapiens, UniProt Q13885), sequence (Q13885 whole entry): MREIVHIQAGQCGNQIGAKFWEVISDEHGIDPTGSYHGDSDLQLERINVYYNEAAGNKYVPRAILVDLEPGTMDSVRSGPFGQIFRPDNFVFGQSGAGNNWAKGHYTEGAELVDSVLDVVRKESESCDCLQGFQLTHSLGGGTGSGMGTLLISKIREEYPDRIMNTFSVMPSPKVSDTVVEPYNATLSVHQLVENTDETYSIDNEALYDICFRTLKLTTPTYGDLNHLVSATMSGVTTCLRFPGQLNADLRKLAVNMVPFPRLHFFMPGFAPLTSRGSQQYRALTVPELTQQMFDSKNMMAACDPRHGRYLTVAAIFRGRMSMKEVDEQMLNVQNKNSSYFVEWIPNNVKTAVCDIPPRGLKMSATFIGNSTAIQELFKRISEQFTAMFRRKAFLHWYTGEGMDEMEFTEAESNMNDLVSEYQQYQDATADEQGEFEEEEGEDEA
SW480 colon carcinoma cells lysate proteins (Homo sapiens, UniProt P22626), sequence (P22626 whole entry): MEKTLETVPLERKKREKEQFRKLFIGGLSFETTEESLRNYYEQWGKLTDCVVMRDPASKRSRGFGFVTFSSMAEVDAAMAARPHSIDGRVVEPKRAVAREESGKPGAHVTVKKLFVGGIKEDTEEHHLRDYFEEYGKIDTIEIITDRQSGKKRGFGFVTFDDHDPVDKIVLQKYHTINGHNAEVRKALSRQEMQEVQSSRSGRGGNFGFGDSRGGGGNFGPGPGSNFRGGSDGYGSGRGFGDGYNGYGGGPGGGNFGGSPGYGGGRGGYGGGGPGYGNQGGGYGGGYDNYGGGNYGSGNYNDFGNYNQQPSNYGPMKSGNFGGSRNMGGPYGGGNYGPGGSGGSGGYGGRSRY
SW480 colon carcinoma cells lysate proteins (Homo sapiens, UniProt P68366), sequence (P68366 whole entry): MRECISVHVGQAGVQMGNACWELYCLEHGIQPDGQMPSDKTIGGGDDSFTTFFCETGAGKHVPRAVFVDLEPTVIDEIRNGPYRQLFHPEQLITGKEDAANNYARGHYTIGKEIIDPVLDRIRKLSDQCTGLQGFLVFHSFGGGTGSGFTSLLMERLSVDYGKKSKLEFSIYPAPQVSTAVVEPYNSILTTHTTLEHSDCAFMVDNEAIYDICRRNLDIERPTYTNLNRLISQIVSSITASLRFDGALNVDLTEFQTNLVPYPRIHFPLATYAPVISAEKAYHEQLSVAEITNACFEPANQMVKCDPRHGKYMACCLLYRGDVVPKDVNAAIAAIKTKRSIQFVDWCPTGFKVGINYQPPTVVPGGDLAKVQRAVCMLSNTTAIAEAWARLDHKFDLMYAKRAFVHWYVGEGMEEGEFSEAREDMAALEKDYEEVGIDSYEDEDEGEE

`C[C@H](Oc1cc(-c2cnn(C3CCNCC3)c2)cnc1N)c1c(Cl)ccc(F)c1Cl` [(5)-crizotinib] was tested. Which AvgP [1] did it give?
Its AvgP is 0.2785.

And the “SC.Exp. 1-1” value [1]?
Its value is 1.

And the “SC.Exp. 1-2” value [1]?
Its value is 2.

What about the “SC.Exp. 2-1” value [1] of the same compound?
The value was 0.

What about the “SC.Exp. 2-2” value [1] of the same compound?
The value was 0.

What about the “Sum (SC.Exp.)” value [1] of the same compound?
Its value is 3.

What about the AvgP [2] of the same compound?
The AvgP was 0.2944.

And the “SC.Exp. 1-1” value [2]?
Its value is 2.

And the “SC.Exp. 1-2” value [2]?
The value was 2.

What about the “SC.Exp. 2-1” value [2] of the same compound?
The value was 0.

What about the “SC.Exp. 2-2” value [2] of the same compound?
Its value is 2.

What about the “Sum (SC.Exp.)” value [2] of the same compound?
Its value is 6.

What about the AvgP [3] of the same compound?
The AvgP was 0.3567.

And the “SC.Exp. 1-1” value [3]?
The value was 2.

And the “SC.Exp. 1-2” value [3]?
The value was 3.

What about the “SC.Exp. 2-1” value [3] of the same compound?
Its value is 0.

What about the “SC.Exp. 2-2” value [3] of the same compound?
The value was 0.

And the “Sum (SC.Exp.)” value [3]?
The value was 5.

And the AvgP [4]?
The AvgP was 0.

And the “SC.Exp. 1-1” value [4]?
The value was 12.

And the “SC.Exp. 1-2” value [4]?
The value was 13.

What about the “SC.Exp. 2-1” value [4] of the same compound?
The value was 9.

And the “SC.Exp. 2-2” value [4]?
The value was 11.

And the “SC.Exp. Sum” value [4]?
Its value is 45.

What about the AvgP [5] of the same compound?
Its AvgP is 0.

What about the “SC.Exp. 1-1” value [5] of the same compound?
The value was 22.

And the “SC.Exp. 1-2” value [5]?
The value was 20.

And the “SC.Exp. 2-1” value [5]?
Its value is 14.

And the “SC.Exp. 2-2” value [5]?
The value was 12.

What about the “SC.Exp. Sum” value [5] of the same compound?
Its value is 68.

And the AvgP [6]?
Its AvgP is 0.

And the “SC.Exp. 1-1” value [6]?
Its value is 1.

What about the “SC.Exp. 1-2” value [6] of the same compound?
Its value is 1.

And the “SC.Exp. 2-1” value [6]?
Its value is 0.

And the “SC.Exp. 2-2” value [6]?
The value was 0.

What about the “SC.Exp. Sum” value [6] of the same compound?
Its value is 2.

And the AvgP [7]?
Its AvgP is 0.

What about the “SC.Exp. 1-1” value [7] of the same compound?
Its value is 1.

And the “SC.Exp. 1-2” value [7]?
The value was 1.

And the “SC.Exp. 2-1” value [7]?
Its value is 0.

And the “SC.Exp. 2-2” value [7]?
The value was 0.

What about the “SC.Exp. Sum” value [7] of the same compound?
Its value is 2.

What about the AvgP [8] of the same compound?
Its AvgP is 0.

And the “SC.Exp. 1-1” value [8]?
The value was 5.

And the “SC.Exp. 1-2” value [8]?
Its value is 4.

And the “SC.Exp. 2-1” value [8]?
Its value is 2.

What about the “SC.Exp. 2-2” value [8] of the same compound?
The value was 2.

What about the “SC.Exp. Sum” value [8] of the same compound?
The value was 13.

And the AvgP [9]?
Its AvgP is 0.

And the “SC.Exp. 1-1” value [9]?
Its value is 0.

What about the “SC.Exp. 1-2” value [9] of the same compound?
The value was 0.

What about the “SC.Exp. 2-1” value [9] of the same compound?
The value was 0.

And the “SC.Exp. 2-2” value [9]?
The value was 1.

And the “SC.Exp. Sum” value [9]?
The value was 1.

And the AvgP [10]?
The AvgP was 0.1791.

And the “SC.Exp. 1-1” value [10]?
The value was 0.

What about the “SC.Exp. 1-2” value [10] of the same compound?
Its value is 2.

What about the “SC.Exp. 2-1” value [10] of the same compound?
The value was 0.

And the “SC.Exp. 2-2” value [10]?
The value was 0.

What about the “Sum (SC.Exp.)” value [10] of the same compound?
The value was 2.

What about the AvgP [11] of the same compound?
Its AvgP is 0.4044.

What about the “SC.Exp. 1-1” value [11] of the same compound?
Its value is 2.

What about the “SC.Exp. 1-2” value [11] of the same compound?
Its value is 3.

What about the “SC.Exp. 2-1” value [11] of the same compound?
Its value is 0.

What about the “SC.Exp. 2-2” value [11] of the same compound?
Its value is 0.

And the “Sum (SC.Exp.)” value [11]?
Its value is 5.

What about the AvgP [12] of the same compound?
Its AvgP is 0.

What about the “SC.Exp. 1-1” value [12] of the same compound?
Its value is 1.

And the “SC.Exp. 1-2” value [12]?
Its value is 1.

What about the “SC.Exp. 2-1” value [12] of the same compound?
Its value is 0.

What about the “SC.Exp. 2-2” value [12] of the same compound?
Its value is 1.

What about the “SC.Exp. Sum” value [12] of the same compound?
The value was 3.
